In brackets after ≈: the same amount, converted by molar mass. Structures can show the parent of a compound that is named as a salt.
How the values were obtained:
Escherichia coli = assay: Antibacterial activity against Escherichia coli assessed as inhibition of bacterial growth incubated for 18 to 20 hrs by agar dilution method; format: functional; conditions: time 18-20 hrs
Proteus = assay: Antibacterial activity against Proteus species assessed as inhibition of bacterial growth incubated for 18 to 20 hrs by agar dilution method; format: functional; conditions: time 18-20 hrs
Bacillus cereus = assay: Antibacterial activity against Bacillus cereus assessed as inhibition of bacterial growth incubated for 18 to 20 hrs by agar dilution method; format: functional; conditions: time 18-20 hrs
K562 = assay: Cytotoxicity against human K562 cells assessed as reduction in cell viability by MTT assay; format: functional, cell-based
L02 = assay: Cytotoxicity against human L02 cells assessed as reduction in cell viability by SRB assay; format: functional, cell-based
H69AR = assay: Cytotoxicity against human H69AR cells assessed as reduction in cell viability by SRB assay; format: functional, cell-based
ASPC1 = assay: Cytotoxicity against human ASPC1 cells assessed as reduction in cell viability by SRB assay; format: functional, cell-based
MDA-MB-231 = assay: Cytotoxicity against human MDA-MB-231 cells assessed as reduction in cell viability by SRB assay; format: functional, cell-based

MIC (Escherichia coli)	MIC (Proteus)	MIC (Bacillus cereus)	Structure (SMILES)	IC50 (K562)	IC50 (L02)	IC50 (H69AR)	IC50 (ASPC1)	IC50 (MDA-MB-231)
16.3 µg/mL (≈ 50 µM)	16.3 µg/mL (≈ 50 µM)	16.3 µg/mL (≈ 50 µM)	CC1=CC(=O)[C@@](C)(O)C(=O)/C1=C\Nc1ccc(Cl)c(Cl)c1					
			CC1=CC(=O)[C@@](C)(O)C(=O)/C1=C\Nc1ccc(C(=O)O)cc1	8.5 µM	16.1 µM	9.6 µM	> 30 µM	> 30 µM
			CC1=CC(=O)[C@@](C)(O)C(=O)/C1=C\Nc1cccc(C(N)=O)c1	2.2 µM	17 µM	> 30 µM	> 30 µM	> 30 µM
			COc1cccc2c1C(=O)c1c(O)c3c(c(O)c1C2=O)C[C@@](O)(C(=O)CO)C[C@@H]3O[C@H]1C[C@H](N)[C@H](O)[C@H](C)O1 [DOXORUBICIN HYDROCHLORIDE]		0.2 µM	15.1 µM		0.3 µM
			CC1=CC(=O)[C@@](C)(O)C(=O)/C1=C\Nc1ccc(F)cc1Br	2.8 µM	20.9 µM	> 30 µM	> 30 µM	> 30 µM

From ChEMBL document CHEMBL5137110, “Production of Multiple Talaroenamines from Penicillium malacosphaerulum via One-Pot/Two-Stage Precursor-Directed Biosynthesis” (J Nat Prod, 2022)
